Experimental data reported in patent publication US11207286B2, “Self-emulsifying composition of w3 fatty acid” (MOCHIDA PHARMACEUTICAL CO., LTD., priority 2009, dated 2021).

Legend:
[1] = Pharmacokinetics in beagle; type: in vivo; details: male beagles fasted at least 18 hours, oral, 600 mg in terms of EPA-E, plasma EPA, corrected for pre-administration concentration
Protocol: The compositions of the Examples 6, 7, 9, 10, 13, and Comparative Example 2 were orally administered to 3 to 8 male beagles (34 to 45 months old having a body weight of 11 to 17 kg, Kitayama Labes Co., Ltd.) under fasting, and time course blood EPA concentration was evaluated. The test animals were fasted at least for 18 hours before the test, and each animal was administered with the composition at an amount of 600 mg in terms of the EPA-E. The blood was collected before the administration and at 1, 1.5, 2, 2.5, 3, 4, 6, 8, and 24 hours after the administration, and after separating and treating the plasma, plasma EPA concentration was measured by LC/MS/MS. The EPA-E stock solution filled in a capsule was also administered to the control group animals. […] In calculating each parameter, the value was corrected by subtracting the blood EPA concentration before the administration from the blood concentration after the administration.

[2] = on rare occasion; cited from earlier work
[3] = Pharmacokinetics in cynomolgus monkey; type: in vivo; details: cynomolgus monkeys fasted at least 12 hours, oral, 4.5 mg/kg in terms of EPA-E, plasma EPA
Protocol: The compositions of the Example 6 was orally administered to 6 cynomolgus monkies (2 to 5 years having a body weight of 2.70 to 4.65 kg, Hamri Co., Ltd.) under fasting, and time course blood EPA concentration was evaluated. The test animals were fasted at least for 12 hours before the test, and each animal was administered with the self-emulsifying composition at an amount of 4.5 mg/kg in terms of the EPA-E. The EPA-E stock solution filled in a capsule was also administered to the control group animals. The blood was collected before the administration and at 1, 2, 4, 6, 8, 10, 12, 24, 48, and 72 hours after the administration, and after separating and treating the plasma, plasma EPA was measured by LC/MS/MS. […] In calculating each parameter, the value was corrected by subtracting the blood EPA concentration before the administration from the blood concentration after the administration.

[4] = system: Fasted Glucose Tolerance Model Rat; experiment: Effectiveness in fasted glucose tolerance model rat; type: in vivo, Sprague Dawley rats; details: rats fasted at least 24 hours, oral capsule 100 mg/kg in terms of EPA-E, glucose 2 g/kg 30 minutes later
Protocol: Male Sprague Dawley rats (10 week old, Charles River Laboratories Japan, Inc.) are divided into 4 groups each comprising 10 animals with even body weight and serum TG value. Control group is administered with olive oil, EPA-E group is administered with EPA-E stock solution, Example group is administered with the self-emulsifying composition of Example 6, and comparative group is administered with the composition of Comparative Example 2 by filling in the gelatin capsule and perorally administering the capsule to the animals, respectively. The test animals are fasted at least 24 hours before the administration, and each animal is administered with the composition at an amount of 100 mg/kg in terms of the olive oil or the EPA-E. 30 minutes after the administration, glucose solution in physiological saline is orally administered at 2 g/kg. Blood is periodically collected from tail vein, and plasma TG concentration and free fatty acid concentration are measured by using a commercially available assay kit. Change from the value before the glucose loading is calculated for each parameter.

AUC0-2 ([1]; 0 to 2 hours): 14.4 µg·h/mL
AUC0-24 ([1]; 0 to 24 hours): 188.0 µg·h/mL
Cmax [1]: 16600 ng/mL
AUC0-12 ([3]; 0 to 12 hours, corrected): 46.5 µg·h/mL
AUC0-72 ([3]; 0 to 72 hours, corrected): 284.5 µg·h/mL
Cmax ([3]; corrected for pre-administration concentration): 7400 ng/mL
SMILES: CC/C=C\C/C=C\C/C=C\C/C=C\C/C=C\CCCC(=O)OCC [EPA-E stock solution, Ethyl eicosapentaenoate ester]
side effect: nausea [2]: 0.23%
side effect: stomach discomfort [2]: 0.23%
side effect: vomiturition [2]: 0.21%
increase in plasma TG concentration after the glucose loading [4]: not observed
